We go through two compounds from patent publication US7781175B2, “Method of screening compounds which alter the binding properties of GPR39, and homologs thereof, to bile acid” (Takeda Pharmaceutical Company Limited, priority 2004, dated 2010).

What all share (assay type): cell-based
The test system of assay [1] is pAKKO-111H transfected cells (control). In words: SRE-luciferase reporter assay in pAKKO-111H transfected HeLa cells for control. As to conditions: for Luciferase Activity (cps), pAKKO-111H (control): pAKKO-111H transfected HeLa cells, 4 hours, 0 μM baseline 2042. As to the method: (§1) First, cDNA encoding G protein-coupled receptor protein, the GPR39 (SEQ ID NO: 1) prepared by the method publicly known was inserted into pAKKO-111H (the same plasmid vector as pAKKO-1.111H described in Biochem. Biophys. Acta, Hinuma, S. et al., 1219, 251-259, 1994). Using the expression plasmid for animal cells thus obtained, Escherichia coli JM109 was transfected and the colonies obtained were isolated and cultured. Thereafter, large scale plasmid preparation was carried out using QIAGEN Plasmid Maxi Kit (Qiagen). Furthermore, the pSRE-Luc reporter plasmid (Invitrogen) ligated with a luciferase gene as a reporter at the downstream of serum response element (SRE), and expression vector plasmids for human GαoA, human Gβ1 and human Gγ2, which are a kind of G proteins, were prepared in a similar manner.
(§2) HeLa cells as host cells for transfecting the G protein-coupled receptor protein expression plasmid and the reporter plasmid were plated on a 384-well assay plate (COSTAR 3704) at 4000 cells/well in a culture volume of 25 μl, followed by incubation overnight. The medium used was DMEM (Invitrogen) supplemented with 10% fetal calf serum and 1% MEM non-essential amino acids solution (DMEM/NEAA).
(§3) Each plasmid was added to and mixed with 240 μl of Opti-MEM-I (Invitrogen) in a proportion of 1 μl of the protein expression plasmid or, for comparison, expression vector pAKKO-111H without DNA encoding the receptor protein in place of an expression plasmid of the receptor, 9 μl of the reporter plasmid and 1 μl each of the G protein-coupled receptor protein expression plasmid GαoA, Gβ1 or Gγ2. […]
(§4) The HeLa cells prepared in EXAMPLE 1 were washed twice with fetal calf serum-free DMEM/NEAA (assay medium) and then cultured in the same assay medium at 37° C. under 5% CO2 for 2 hours. […] After the cells were lysed and thoroughly mixed with the substrate, the chemiluminescence level corresponding to the expression induction level of the reporter gene in each well was measured on the plate reader (EnVision™, Perkin-Elmer).

Assay [2] concerns the target T1, GPR39 (SEQ ID NO: 1) (Homo sapiens, UniProt O43194).
T1 construct: expressed in transfected cells; host or cells: HeLa cells, transient transfection (vector pAKKO-111H)
T1 sequence (O43194 1-453): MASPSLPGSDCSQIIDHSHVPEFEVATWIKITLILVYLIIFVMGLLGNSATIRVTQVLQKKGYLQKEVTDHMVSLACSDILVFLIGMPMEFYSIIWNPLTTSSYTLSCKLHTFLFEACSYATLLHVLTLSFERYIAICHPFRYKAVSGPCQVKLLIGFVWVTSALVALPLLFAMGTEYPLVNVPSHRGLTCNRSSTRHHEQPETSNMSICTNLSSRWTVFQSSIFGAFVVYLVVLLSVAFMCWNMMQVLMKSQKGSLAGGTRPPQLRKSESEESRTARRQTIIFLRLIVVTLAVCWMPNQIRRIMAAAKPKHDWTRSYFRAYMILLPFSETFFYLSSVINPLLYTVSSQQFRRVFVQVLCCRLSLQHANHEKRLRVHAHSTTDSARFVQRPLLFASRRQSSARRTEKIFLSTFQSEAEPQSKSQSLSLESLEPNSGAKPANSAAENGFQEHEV
As to the kind of experiment: SRE-luciferase reporter assay for ligand activity in GPR39-expressed HeLa cells. As to conditions: for Increased Luciferase Activity (cps) by TLCA in GPR39-Expressed Cells: GPR39-expressed HeLa cells, 4 hours, 0 μM baseline 3574. As for the experimental part: as §1, §2, §3, §4

Assay [3] concerns GPR39-expressed cell line UM-UC-3. In words: IL-8 secretion from GPR39-expressed cell line UM-UC-3, quantified by EIA. The following applies: 500 μM, 4 hours. As to the method:
Using the GPR39-expressed cell line UM-UC-3 (Dainippon Pharmaceutical), effects by the addition of bile acids as the GPR39 agonist were examined.
On the day before assay, UM-UC-3 was cultured until preconfluent in MINIMUM ESSENTIAL MEDIUM (WITH EARLE'S SALTS, WITH L-GLUTAMINE) (GIBCO BRL) supplemented with 10% FCS and MEM NON-ESSENTIAL AMINO ACIDS (GIBCO BRL), washed with PBS, detached using trypsin, centrifuged for recovery and then suspended in a medium to 3×10^6 cells/ml. After a 100 μl aliquot was dispensed into each well of a 96-well plate (Falcon), followed by incubation overnight in a CO2 incubator.
On the assay day, after the medium for the cells prepared on the preceding day was removed, the cells were washed with MEM NON-ESSENTIAL AMINO ACIDS-containing MINIMUM ESSENTIAL MEDIUM (WITH EARLE'S SALTS, WITH L-GLUTAMINE). A […] was further charged in each well, followed by incubation […] at 37° C. in a CO2 incubator. Subsequently, a 100 μl aliquot of MEM NON-ESSENTIAL AMINO ACIDS-containing MINIMUM ESSENTIAL MEDIUM (WITH EARLE'S SALTS, WITH L-GLUTAMINE), to which various test samples were added, was dispensed into each well, followed by incubation […]. After the culture supernatant was recovered, IL-8 contained in each sample was quantified by EIA (Amersham).

Regarding `C[C@H](CCC(=O)NCCS(=O)(=O)[O-])[C@H]1CC[C@H]2[C@@H]3CC[C@@H]4C[C@H](O)CC[C@]4(C)[C@H]3CC[C@]12C.[Na+]` [TLCA, sodium taurolithocholate], in assay [1] (TLCA added), the “luciferase activity in the pAKKO-111H transfected cells for control (in words)” value is recorded as “any marked increase of the activity was not detected”. Further, the “Luciferase Activity (cps), pAKKO-111H (control)” value in assay [1] (TLCA level 5 μM) came out at 2214 cps; in assay [1] (TLCA level 20 μM), 2542 cps. Further, in assay [2] (TLCA 5 μM or 20 μM), the “luciferase activity in the GPR39-expressed cells (in words)” value is listed as “increased luciferase activity”. In addition, the entries for the “Increased Luciferase Activity (cps) by TLCA in GPR39-Expressed Cells” value in assay [2] (TLCA level 5 μM) and in assay [2] (TLCA level 20 μM) were 5977 cps and 8114 cps, respectively.

With `C[C@H](CCC(=O)NCCS(=O)(=O)O)[C@H]1CC[C@H]2[C@@H]3CC[C@@H]4C[C@H](O)CC[C@]4(C)[C@H]3C[C@H](O)[C@]12C` [taurine conjugate of deoxycholic acid], the “IL-8 accumulated in culture supernatant compared to absence of the conjugate” value in assay [3] is “approximately twice as much”.
